{"source": "paper PMC12406255", "about": "“Engineering Peptide Modulators for T‑Cell Migration by Structural Scaffold Matching” (Journal of Medicinal Chemistry, 2025)", "key": {"[1]": {"tested_on": "CD3+ cells of MS patients", "test": "Transwell migration assay with PBMC of MS patients, CD3+ cells", "type": "cell-based, human", "conditions": "PBMC of treatment-naive MS patients; p = 0.0008; repeated measures one-way ANOVA, Dunnett", "experimental": "(§1) 5 Activity of the novel VhTI-pep 2 and pepitem on patient lymphocytes. PPBMCs were isolated from the blood of MS patients with a very recent disease flare receiving no immunosuppressive or immunomodulatory treatment in the past. The effect of the linear pepitem and VhTI-pep 2 was tested for the T-cell populations (A) CD3^+, (B) Th1, (C) CD4^+, (D) memory CD4^+, (E) CD8^+, and (F) memory CD8^+ cells. Data are shown as mean ± SD for 4 independent measurements. Statistical analysis was performed on the level of total counted cells using repeated measures one-way ANOVA with Dunnett’s post hoc test. Statistical significance is indicated as n.s. (not significant), * p < 0.05; ** p < 0.01; *** p < 0.001.\n(§2) Human microvascular endothelial cells (HMEC-1 cells, Cytion, Eppelheim, Germany) were cultured in MCDB-131 medium (with 2.2 g/L sodium bicarbonate, without L-glutamine, PAN-Biotech Aidenbach, Germany) supplemented with 10% fetal bovine serum (FBS, Capricorn Scientific, Ebsdorfergrund, Germany), 100 units/ml penicillin-streptomycin (Sigma-Aldrich) 10 ng/mL epidermal growth factor (BioLegend, San Diego, US), 1 μg/mL hydrocortisone (Sigma-Aldrich), and 10 mM L-glutamine (Sigma-Aldrich). For experiments, the cells were used between passage numbers 4–9. […]"}, "[2]": {"tested_on": "CD4+ cells of MS patients", "test": "Transwell migration assay with PBMC of MS patients, CD4+ cells", "type": "cell-based, human", "conditions": "PBMC of treatment-naive MS patients; p = 0.0005", "experimental": "as §1, §2"}}, "note": "Positions of bridges follow the written chain, without caps; N, C: chain ends. Non-standard residues stand in square brackets, D forms with d. Residues, ends and D or L forms follow the SMILES beside them. Nle = CCCC[C@H](N)C(=O)O"}
{"smiles": "CCCC[C@@H]1NC(=O)[C@H](C(C)C)NC(=O)[C@H](CCCCN)NC(=O)[C@@H](NC(=O)[C@H](CCC(N)=O)NC(=O)[C@H](CCC(=O)O)NC(C)=O)CSSC[C@@H](C(=O)N[C@@H](CCC(=O)O)C(=O)N[C@@H](CCCCN)C(N)=O)NC(=O)[C@H](CC(N)=O)NC(=O)[C@H](CC(=O)O)NC(=O)[C@H](CC(C)C)NC(=O)[C@@H]2CSSC[C@H](NC1=O)C(=O)N[C@@H](Cc1ccc(O)cc1)C(=O)N[C@@H](C)C(=O)N[C@@H](CCC(N)=O)C(=O)NCC(=O)N[C@@H](C)C(=O)N[C@@H](CCC(=O)O)C(=O)N[C@@H](CC(C)C)C(=O)N1CCC[C@H]1C(=O)N[C@@H](CCC(=O)O)C(=O)N[C@@H](CC(C)C)C(=O)N[C@@H](CC(C)C)C(=O)N[C@@H](CCCNC(=N)N)C(=O)N[C@@H](CCCNC(=N)N)C(=O)N2", "note": "[VhTI-pep 2] (Ac-EQCKV[Nle]CYAQGAELPELLRRCLDNCEK-NH2; disulfide 3-25, 7-21)", "values": [{"measurement": "migration of CD3+ cells of MS patients (in words)", "setting": "[1]", "value": "significantly reduced"}, {"measurement": "migration of CD4+ cells of MS patients (in words)", "setting": "[2]", "value": "significantly reduced"}]}
